Reference: US20050075335A1, “Pharmaceutical composition comprising n((1-n-butyl-4-piperidinyl)methyl)-3,4-dihydro-2h-(1,3)oxazino(3,2-a)indole-10-carboxamide or salt and process therefor comprising dry granulation” (priority 2002, published 2005)
Counter-ions that a name gives are not always drawn.

test: Aerated and tapped bulk density of SB-207266-A; assay type: physicochemical; conditions: SB-207266-A batches from Description 1

Aerated bulk density [g/mL] | Tapped bulk Density [g/mL] | SMILES
0.142 | 0.300 | CCCCN1CCC(CNC(=O)c2c3n(c4ccccc24)CCCO3)CC1.Cl [BDC-G-02C]
0.173 | 0.339 | CCCCN1CCC(CNC(=O)c2c3n(c4ccccc24)CCCO3)CC1.Cl [BDC-G-03C]
0.146 | 0.310 | CCCCN1CCC(CNC(=O)c2c3n(c4ccccc24)CCCO3)CC1.Cl [BDC-G-04C]
0.152 | 0.308 | CCCCN1CCC(CNC(=O)c2c3n(c4ccccc24)CCCO3)CC1.Cl [BDC-G-05C]
0.136 | 0.250 | CCCCN1CCC(CNC(=O)c2c3n(c4ccccc24)CCCO3)CC1.Cl [BDC-H-01C]

same assay, conditions: typical value, product of Description 2

Aerated bulk density | Tapped bulk Density | SMILES
ca. 0.14 g/ml | ca. 0.31 g/ml | CCCCN1CCC(CNC(=O)c2c3n(c4ccccc24)CCCO3)CC1 [SB-207266-A, N-[(1-^nbutyl-4-piperidinyl)methyl]-3,4-dihydro-2H-[1,3]-oxazino[3,2-a]indole-10-carboxamide hydrochloride]
